According to patent US11578061B2, “Inhibitors of LRRK2 kinase” (Halia Therapeutics, Inc., priority 2021, dated 2023):

Target: recombinant human LRRK2 (catalytic domain only [amino acids 970-2527], GST-tagged) (Homo sapiens (Human), UniProt Q5S007)
Experiment: LRRK2 Enzymatic Assay
Type: biochemical
Conditions: LRRKtide substrate, [32P]-ATP
Procedure: LRRKtide substrate (peptide sequence RLGRDKYKTLRQIRQ, derived from human ezrin [amino acids 561-573], moesin [amino acids 539-553] and radixin [amino acids 558-570], obtained from SignalChem, catalogue #L10-58, reconstituted in 20 mM Tris-HCl at pH 7.5 to a final concentration of 1 mg/mL, assay concentration 20 μM) and recombinant human LRRK2 (catalytic domain only [amino acids 970-2527], GST-tagged, expressed in insect cells, obtained from ThermoFisher Scientific, catalogue #PV4874, 0.35 mg/mL, assay concentration 30 nM) were mixed in assay buffer (20 mM Hepes pH 7.5, 10 mM MgCl2, 1 mM EGTA, 0.02% Brij35, 0.02 mg/ml BSA, 0.1 mM Na3VO4, 2 mM DTT, 1% DMSO). Compounds of interest (in DMSO, serial 3-fold dilution from 10 μM to 0.5 nM) or control (1% DMSO) were dispensed into the kinase reaction mixture by Acoustic technology (Echo550; nanoliter range). After incubation at room temperature for 20 minutes, the kinase reaction was initiated by addition of [^32P]-ATP (Specific activity 10 μCi/μl) and the mixture was incubated at room temperature for 2 hours. The reaction was then stopped by spotting the reaction mixture on strips of phosphocellulose P81 paper. Following washing, the radioactivity of the P81 paper was measured and kinase activity data were expressed as the percent remaining kinase activity in test samples compared to vehicle (dimethyl sulfoxide) reactions. IC50 values and curve fits were obtained using Prism (GraphPad Software).

recombinant human LRRK2 (catalytic domain only [amino acids 970-2527], GST-tagged), sequence (Q5S007 970-2527): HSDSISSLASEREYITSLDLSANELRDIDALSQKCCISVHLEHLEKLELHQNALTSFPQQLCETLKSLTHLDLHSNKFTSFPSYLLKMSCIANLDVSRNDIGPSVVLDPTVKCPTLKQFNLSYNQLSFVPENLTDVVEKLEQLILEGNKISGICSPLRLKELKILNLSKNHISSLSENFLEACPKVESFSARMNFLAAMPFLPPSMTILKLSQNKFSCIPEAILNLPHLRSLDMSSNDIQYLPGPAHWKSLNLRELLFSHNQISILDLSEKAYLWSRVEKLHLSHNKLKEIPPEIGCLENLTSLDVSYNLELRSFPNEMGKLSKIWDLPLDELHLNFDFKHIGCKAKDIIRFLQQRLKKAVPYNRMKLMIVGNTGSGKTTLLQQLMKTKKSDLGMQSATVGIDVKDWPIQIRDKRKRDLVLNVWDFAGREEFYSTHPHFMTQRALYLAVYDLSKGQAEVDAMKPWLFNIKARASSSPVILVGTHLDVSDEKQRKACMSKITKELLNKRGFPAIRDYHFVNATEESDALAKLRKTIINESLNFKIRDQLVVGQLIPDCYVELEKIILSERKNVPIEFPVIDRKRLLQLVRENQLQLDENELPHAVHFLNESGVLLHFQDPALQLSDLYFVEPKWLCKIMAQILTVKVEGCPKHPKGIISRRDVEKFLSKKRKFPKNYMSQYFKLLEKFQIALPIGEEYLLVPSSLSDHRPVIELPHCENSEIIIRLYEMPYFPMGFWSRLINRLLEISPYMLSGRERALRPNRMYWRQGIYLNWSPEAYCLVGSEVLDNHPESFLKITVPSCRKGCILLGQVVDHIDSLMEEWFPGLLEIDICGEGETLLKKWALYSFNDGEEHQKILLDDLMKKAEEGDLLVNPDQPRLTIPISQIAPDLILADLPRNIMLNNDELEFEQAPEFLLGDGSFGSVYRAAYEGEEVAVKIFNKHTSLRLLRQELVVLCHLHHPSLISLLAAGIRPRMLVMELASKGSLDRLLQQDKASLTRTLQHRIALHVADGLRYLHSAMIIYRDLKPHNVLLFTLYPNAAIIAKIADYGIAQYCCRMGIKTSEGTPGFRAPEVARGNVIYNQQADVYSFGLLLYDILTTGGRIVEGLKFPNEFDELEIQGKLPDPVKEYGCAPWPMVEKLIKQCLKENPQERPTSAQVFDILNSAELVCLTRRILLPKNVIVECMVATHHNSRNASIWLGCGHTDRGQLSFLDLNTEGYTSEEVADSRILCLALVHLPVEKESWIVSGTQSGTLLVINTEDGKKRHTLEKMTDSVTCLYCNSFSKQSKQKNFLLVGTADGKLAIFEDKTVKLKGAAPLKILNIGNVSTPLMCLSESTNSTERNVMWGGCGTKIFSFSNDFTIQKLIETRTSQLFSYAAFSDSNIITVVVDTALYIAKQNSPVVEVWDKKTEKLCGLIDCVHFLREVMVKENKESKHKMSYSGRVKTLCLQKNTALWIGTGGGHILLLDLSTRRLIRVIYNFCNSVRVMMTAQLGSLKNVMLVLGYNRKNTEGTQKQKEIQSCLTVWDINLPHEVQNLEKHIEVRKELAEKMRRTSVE

SMILES | IC50 [nM]
N#CC1CCC(COc2nc(Nc3ccc(N4CCOCC4)cc3)ncc2F)CC1 (racemic) [Example 272, 4-(((5-fluoro-2-((4-morpholinophenyl)amino)pyrimidin-4-yl)oxy)methyl)cyclohexane-1-carbonitrile] | < 50
C[C@@H]1CN(c2ccc(Nc3ncc(F)c(OCC4CCC(C#N)CC4)n3)cc2)C[C@H](C)O1 (mixture of isomers) [Example 273, 4-(((2-((4-((2S,6R)-2,6-dimethylmorpholino)phenyl)amino)-5-fluoropyrimidin-4-yl)oxy)methyl)cyclohexane-1-carbonitrile] | < 50
Cc1nn(C(C)(C)C#N)cc1Nc1ncc(F)c(OCC2CCC(C#N)CC2)n1 (racemic) [Example 274, 4-(((2-((1-(2-cyanopropan-2-yl)-3-methyl-1H-pyrazol-4-yl)amino)-5-fluoropyrimidin-4-yl)oxy)methyl)cyclohexane-1-carbonitrile] | < 50
CC(C)OC1CCC(COc2nc(Nc3ccc(N4CCOCC4)cc3)ncc2F)CC1 (racemic) [Example 278, 5-fluoro-4-((4-isopropoxycyclohexyl)methoxy)-N-(4-morpholinophenyl)pyrimidin-2-amine] | 50 to 200
CC(C)OC1CCC(COc2nc(Nc3ccc(N4C[C@@H](C)O[C@@H](C)C4)cc3)ncc2F)CC1 (mixture of isomers) [Example 279, N-(4-((2S,6R)-2,6-dimethylmorpholino)phenyl)-5-fluoro-4-((4-isopropoxycyclohexyl)methoxy)pyrimidin-2-amine] | 200 to 400
Cc1nn(C(C)(C)C#N)cc1Nc1ncc(F)c(OCC2CCC(OC(C)C)CC2)n1 (racemic) [Example 280, 2-(4-((5-fluoro-4-((4-isopropoxycyclohexyl)methoxy)pyrimidin-2-yl)amino)-3-methyl-1H-pyrazol-1-yl)-2-methylpropanenitrile] | 50 to 200
Cc1nn(C(C)(C)C#N)cc1Nc1ncc(F)c(OCC2CCC(OC(F)(F)F)CC2)n1 (racemic) [Example 284, 2-(4-((5-fluoro-4-((4-(trifluoromethoxy)cyclohexyl)methoxy)pyrimidin-2-yl)amino)-3-methyl-1H-pyrazol-1-yl)-2-methylpropanenitrile] | 200 to 400
C[C@@H]1CN(c2ccc(Nc3ncc(F)c(OCC4CCNCC4F)n3)cc2)C[C@H](C)O1 (single isomer, unassigned) [Example 168] | 50 to 200
C[C@@H]1CN(c2ccc(Nc3ncc(F)c(OCC4CCNCC4F)n3)cc2)C[C@H](C)O1 (single isomer, unassigned) [Example 169] | 50 to 200
Cc1nn(C(C)(C)C#N)cc1Nc1ncc(F)c(OCC2CCNCC2F)n1 (single isomer, unassigned) [Example 170, 2-(4-((5-fluoro-4-((3-fluoropiperidin-4-yl)methoxy)pyrimidin-2-yl)amino)-3-methyl-1H-pyrazol-1-yl)-2-methylpropanenitrile] | 50 to 200
Cc1nn(C(C)(C)C#N)cc1Nc1ncc(F)c(OCC2CCNCC2F)n1 (single isomer, unassigned) [Example 171, 2-(4-((5-fluoro-4-((3-fluoropiperidin-4-yl)methoxy)pyrimidin-2-yl)amino)-3-methyl-1H-pyrazol-1-yl)-2-methylpropanenitrile] | 200 to 400
CC(=O)N1CCC(COc2nc(Nc3ccc(N4CCOCC4)cc3)ncc2F)C(F)C1 (single isomer, unassigned) [Example 172, 1-(3-fluoro-4-(((5-fluoro-2-((4-morpholinophenyl)amino)pyrimidin-4-yl)oxy)methyl)piper-idin-1-yl)ethan-1-one] | 50 to 200
CC(=O)N1CCC(COc2nc(Nc3ccc(N4CCOCC4)cc3)ncc2F)C(F)C1 (single isomer, unassigned) [Example 173, 1-(3-fluoro-4-(((5-fluoro-2-((4-morpholinophenyl)amino)pyrimidin-4-yl)oxy)methyl)piper-idin-1-yl)ethan-1-one] | < 50
CC(=O)N1CCC(COc2nc(Nc3ccc(N4C[C@@H](C)O[C@@H](C)C4)cc3)ncc2F)C(F)C1 (single isomer, unassigned) [Example 174] | 200 to 400
CC(=O)N1CCC(COc2nc(Nc3ccc(N4C[C@@H](C)O[C@@H](C)C4)cc3)ncc2F)C(F)C1 (single isomer, unassigned) [Example 175] | 200 to 400
CC(=O)N1CCC(COc2nc(Nc3cn(C(C)(C)C#N)nc3C)ncc2F)C(F)C1 (single isomer, unassigned) [Example 176, 2-(4-((4-((1-acetyl-3-fluoropiperidin-4-yl)methoxy)-5-fluoropyrimidin-2-yl)amino)-3-methyl-1H-pyrazol-1-yl)-2-methylpropanenitrile] | 200 to 400

SMILES | IC50 [nM]
CC(=O)N1CCC(COc2nc(Nc3cn(C(C)(C)C#N)nc3C)ncc2F)C(F)C1 (single isomer, unassigned) [Example 177, 2-(4-((4-((1-acetyl-3-fluoropiperidin-4-yl)methoxy)-5-fluoropyrimidin-2-yl)amino)-3-methyl-1H-pyrazol-1-yl)-2-methylpropanenitrile] | > 400
Cc1nn(C(C)(C)C#N)cc1Nc1ncc(F)c(OCC2CCCC(O)CC2)n1 (single isomer, unassigned) [Example 263, 2-(4-((5-fluoro-4-((4-hydroxycycloheptyl)methoxy)pyrimidin-2-yl)amino)-3-methyl-1H-pyrazol-1-yl)-2-methylpropanenitrile] | < 50
Fc1cnc(Nc2ccc(N3CCOCC3)cc2)nc1OCC1CCC(OC(F)(F)F)CC1 (single isomer, unassigned) [Example 281, 5-fluoro-N-(4-morpholinophenyl)-4-((4-(trifluoromethoxy)cyclohexyl)methoxy)pyrimidin-2-amine] | > 400
Fc1cnc(Nc2ccc(N3CCOCC3)cc2)nc1OCC1CCC(OC(F)(F)F)CC1 (single isomer, unassigned) [Example 282, 5-fluoro-N-(4-morpholinophenyl)-4-((4-(trifluoromethoxy)cyclohexyl)methoxy)pyrimidin-2-amine] | > 400
Cc1nn(C(C)(C)C#N)cc1Nc1ncc(F)c(OCC2CC(C#N)C2)n1 (single isomer, unassigned) [Example 290, 3-(((2-((1-(2-cyanopropan-2-yl)-3-methyl-1H-pyrazol-4-yl)amino)-5-fluoropyrimidin-4-yl)oxy)methyl)cyclobutane-1-carbonitrile] | < 50
Cc1nn(C(C)(C)C#N)cc1Nc1ncc(F)c(OCC2CC(C#N)C2)n1 (single isomer, unassigned) [Example 291, 3-(((2-((1-(2-cyanopropan-2-yl)-3-methyl-1H-pyrazol-4-yl)amino)-5-fluoropyrimidin-4-yl)oxy)methyl)cyclobutane-1-carbonitrile] | < 50
N[C@H]1CC[C@@H](COc2ccnc(Nc3ccc(N4CCOCC4)cc3)n2)CC1 [Example 1, 4-(((1S,4S)-4-aminocyclohexyl)methoxy)-N-(4-morpholinophenyl) pyrimidin-2-amine] | < 50
N[C@H]1CC[C@H](COc2ccnc(Nc3ccc(N4CCOCC4)cc3)n2)CC1 [Example 2, 4-(((1R,4R)-4-aminocyclohexyl)methoxy)-N-(4-morpholinophenyl) pyrimidin-2-amine] | < 50
Cn1ccc(Nc2nccc(OC[C@H]3CC[C@@H](N)CC3)n2)n1 [Example 3, 4-(((1S,4S)-4-aminocyclohexyl)methoxy)-N-(1-methyl-1H-pyrazol-3-yl) pyrimidin-2-amine] | 50 to 200
Cn1ccc(Nc2nccc(OC[C@H]3CC[C@H](N)CC3)n2)n1 [Example 4, 4-(((1R,4R)-4-aminocyclohexyl)methoxy)-N-(1-methyl-1H-pyrazol-3-yl)pyrimidin-2-amine] | 50 to 200
N[C@H]1CC[C@H](COc2ccnc(Nc3ccn(CC(F)F)n3)n2)CC1 [Example 5, 4-(((1R,4R)-4-aminocyclohexyl)methoxy)-N-(1-(2,2-difluoroethyl)-1H-pyrazol-3-yl) pyrimidin-2-amine] | 50 to 200
N[C@H]1CC[C@H](COc2ccnc(Nc3cccc(N4CCOCC4)c3)n2)CC1 [Example 6, 4-(((1R,4R)-4-aminocyclohexyl)methoxy)-N-(3-morpholinophenyl) pyrimidin-2-amine] | < 50
N[C@H]1CC[C@H](COc2nc(Nc3ccc(N4CCOCC4)cc3)ncc2C(F)(F)F)CC1 [Example 7, 4-(((1R,4R)-4-aminocyclohexyl)methoxy)-N-(4-morpholinophenyl)-5-(trifluoromethyl) pyrimidin-2-amine] | > 400
COc1cnc(Nc2ccc(N3CCOCC3)cc2)nc1OC[C@H]1CC[C@H](N)CC1 [Example 8, 4-(((1R,4R)-4-aminocyclohexyl)methoxy)-5-methoxy-N-(4-morpholinophenyl) pyrimidin-2-amine] | < 50
N[C@H]1CC[C@H](COc2nc(Nc3ccc(N4CCOCC4)cc3)ncc2Cl)CC1 [Example 9, 4-(((1R,4R)-4-aminocyclohexyl)methoxy)-5-chloro-N-(4-morpholinophenyl) pyrimidin-2-amine] | < 50
N[C@H]1CC[C@H](COc2nc(Nc3ccc(N4CCOCC4)cc3)ncc2F)CC1 [Example 10, 4-(((1R,4R)-4-aminocyclohexyl)methoxy)-5-fluoro-N-(4-morpholinophenyl) pyrimidin-2-amine] | < 50
